# Source: a melting point compilation (Tetko et al.; mined from patent text by program, amines drawn as free bases though some values may be those of a salt)
row,Compound,melting point
1,c1ccc(Nc2csc(-c3cn[nH]c3)n2)nc1,209 to 210 °C
2,COc1ccc(C(=O)CC2CCCN(C)C2)cc1 (stereo unspecified),89 to 92 °C
3,O=c1[nH]c2ccc(I)cc2c(=O)n1-c1ccc(Cl)cc1,324 to 326 °C
4,CCC(=O)Oc1c(OC)cc(C)c(C(=O)c2c(OC)ccc(Cl)c2C)c1OC,150 to 151 °C
5,Oc1ccc(C(=S)c2ccc(-c3ccccc3)cc2)c(O)c1,114 to 116 °C
6,Cc1cncc(CN2CCC(=C3c4ccc(Cl)cc4CCc4cccnc43)CC2)c1,58 to 61 °C
7,CCc1nc2c(cnn2CC)c(NC2CCOCC2)c1CNC(=O)c1cc(C)cc(C(=O)NCc2cccc(-c3cccc(CC4CCN(C)CC4)c3)c2)c1,119 to 121 °C
8,CC(=O)NCCCC(=O)c1ccc(Cl)cc1CCC(=O)NCC(=O)O,88 to 89 °C
9,CCN1CCNC(=O)C1c1ccc(Nc2nc(-c3ccc(F)c(NC(=O)c4cc5c(s4)CCCC5)c3C)cn(C)c2=O)cc1 (stereo unspecified),179 to 180 °C
10,O=C(NCCOCc1ccc(C(=O)c2ccccc2)cc1)Nc1ccccc1,129 to 132 °C
11,Cc1n[nH]c2c1C[C@@H]1CN(C)CC[C@H]1C2 (relative stereo),160 to 162 °C
12,OCc1c(Br)c(Br)c(CO)c(Br)c1Br,248 °C
13,CC(=O)OCC1OC(n2cc(C)c(NO)nc2=O)CC1F (stereo unspecified),180 to 181 °C
14,CCC(C)(C)N=C(NC#N)Nc1cc(F)cc(Cl)c1,130 to 131 °C
15,CCOC(=O)CCC(=O)c1ccc(OCCCCCBr)c(CCC(=O)OCC)c1,40 to 41 °C
16,O=C1Nc2ccccc2C12COc1cc3c(cc12)OCCO3 (stereo unspecified),> 250 °C
17,CCCCCCCCCCC/C=C\c1c[nH]c(C(=O)O)c1,157 to 158 °C
18,COc1ccc(CNc2ncnc3c2ncn3C2OC(CO)C(O)C2O)cc1 (stereo unspecified),148 °C
19,CC(=O)COC1CC2C3CCC4=CC(=O)C=CC4(C)C3(F)C(O)CC2(C)C1(O)C(=O)CCl (stereo unspecified),226 to 227 °C
20,O=C(NC(=O)C(Br)CBr)Nc1ccccc1 (stereo unspecified),160 to 161 °C
21,Cc1noc(NC(=O)N2CCN(c3nccc(-c4cc(F)ccc4F)n3)CC2)c1C,218 to 219 °C
22,O=C(Nc1ccc(Oc2ccnc(N3CCCC(O)C3)n2)c2ccccc12)c1cc(F)cc(N2CCOCC2)c1 (stereo unspecified),180 to 181 °C
23,COc1c(Cl)ccc(-c2nc(C(=O)NOC3CCCCO3)c(Cl)c(N)c2F)c1F (stereo unspecified),177 to 180 °C

row,Compound,melting point
1,O=C1COc2ccc(C3=Cc4cc(F)ccc4SC3c3ccc(F)cc3)cc2N1 (stereo unspecified),191 to 192 °C
2,CCOC(=O)C1CN(C(=O)C2=Cc3cc(OC)c(OC)cc3CCC2)CCN1 (stereo unspecified),105 to 106 °C
3,COC(=O)C=C(C(=O)OC)N1CCC23C=CC(O)CC2Oc2c(OC)ccc(c23)C1 (stereo unspecified),121 to 122 °C
4,CCn1ncc2cc3c(nc21)C(O)c1ccccc1CC3 (stereo unspecified),130 to 132 °C
5,O=c1[nH]nc(Cl)cc1Nc1ccc(-c2ccncc2)nn1,263 to 265 °C
6,CC(=O)OCC1OC(n2ncc(C#N)n2)C(OC(C)=O)C1OC(C)=O (stereo unspecified),77 to 79 °C
7,CNS(=O)(=O)CCc1ccc2[nH]cc(CCN=Cc3ccccc3)c2c1,146 to 148 °C
8,CCc1nn(C2CCCC2)c(N)c1C(N)=O,167 to 168 °C
9,OCCOCCOCCN1CCC(=C2c3ccccc3CC(O)c3sccc32)CC1 (stereo unspecified),110 to 113 °C
10,CCC(=O)Nc1ccc(C=CC(=O)O)cc1,243 °C
11,O=C(O)CCc1cnoc1-c1ccc(Cl)c(Br)c1,177 to 180 °C
12,O=C(C[N+](=O)[O-])c1ccc(-c2ccc(-c3ccc4ccccc4n3)cc2)cc1,160 to 162 °C
13,O=S(CCCCCl)Cc1ccc(Cl)cc1 (stereo unspecified),56 to 58 °C
14,CC(C)(C)c1ccc(O)c(CNS(=O)(=O)O)c1,260 to 262 °C
15,Cn1ccnc1CCNS(=O)(=O)c1ccccc1[N+](=O)[O-],193 to 199 °C
16,COc1ccc(CCSCC2CCC2)cc1,52 °C
17,CC(=O)N1C(=O)C2(COc3cc4c(cc32)OCCO4)c2ccccc21 (stereo unspecified),236 to 238 °C
18,CCCCN(CCCC)c1cc(OC)c(C=O)c(OC)c1,55 to 56 °C
19,CCN(Cc1ccc(Cl)nc1)C(=NC#N)NC,122 to 123 °C
20,CC(C)([C@H](NC(=O)c1ccccc1)C(=O)N[C@@H](Cc1ccccc1)[C@H](O)CN1C[C@H]2CCCC[C@H]2C[C@H]1C(=O)NCc1ccccc1)S(C)(=O)=O,212 to 218 °C
21,Nc1nc2[nH]c(CCCc3cc(C(=O)N[C@@H](CCC(=O)O)C(=O)O)cs3)cc2c(=O)[nH]1,191 to 192 °C
22,CSc1nc2c(NCc3ccccc3)ncnc2n1C1OC(CO)C(O)C1O (stereo unspecified),81 to 84 °C
23,CN1CC(CCCl)Oc2cc(Cl)ccc2C1=O (stereo unspecified),85 to 87 °C

row,Compound,melting point
1,CCCCCCCCSc1ccc(-c2ncc(CCCCC)cn2)cc1,43 °C
2,CC(=O)ON=C(N)c1ccc(C(=O)NCCCNC(=O)[C@@H]2CCCN2S(=O)(=O)c2ccc(Cl)c(COc3cccn4cc(C)nc34)c2Cl)cc1,105 to 107 °C
3,O=C1C2CCCN2S(=O)(=O)N1CSc1nnnn1-c1ccccc1 (stereo unspecified),99.5 to 100 °C
4,COc1cc(C(CCN(C)C)C(N)=O)cc(OC)c1OC (stereo unspecified),110 to 112 °C
5,C=CCCCCCCCCNC(=O)NOCc1ccccc1,53 to 55 °C
6,CCOCCOc1cc(C(F)(F)F)cc(N(N)C(=CNS(C)(=O)=O)[N+](=O)[O-])n1,153 °C
7,CS(=O)(=O)c1ccc(-c2cc(C(F)(F)F)nn2C2CCCCC2)cc1F,228 to 229 °C
8,NS(=O)(=O)c1ccc(-c2cccc(-c3nc(-c4ccc(C(F)(F)F)cc4F)cc(C(F)(F)F)n3)c2)s1,192 °C
9,COC1=C(OC)C(=O)c2c(Cl)cccc2C1=O,120 to 121 °C
10,CN1CCC(=C2c3ccc(Cl)cc3CCn3ccnc32)CC1,187 °C
11,O=C(O)c1ccc(C2CCNCC2)cc1,> 270 °C
12,COC(=O)[C@@H](C)N[C@@H](CC(C)(C)C)C(=O)O,120 to 124 °C
13,c1ccc2c(c1)NCCCO2,50 to 51 °C
14,Nc1nc(N)c(C=O)c(OCC2CCCCC2)n1,159 to 160 °C
15,CC(C)=CCCC(C)=CCc1c(-c2ccc(O)cc2O)oc2cc(O)cc(O)c2c1=O,94 to 95 °C
16,O=c1ccc(-c2c(-c3ccccc3)nn3ccccc23)nn1C1CCNCC1,115 to 117 °C
17,COc1ccc(-c2nsc(SN)n2)cc1,136 to 139 °C
18,Nc1nc(N)c(CCCN(C(=O)C(F)(F)F)c2ccc(C(=O)O)cc2)c(=O)[nH]1,229 to 230 °C
19,CC(C)(CN)Nc1ncc2ncnc(Nc3ccc(F)c(Cl)c3)c2n1,196 to 201 °C
20,Cc1cc2c(cc1C1=NNC(=O)CC1)N(C)C(=O)C(C)O2 (stereo unspecified),210 to 212 °C
21,Cc1[nH]c(=O)c(C#N)cc1C(=O)n1ccnc1,237 to 238 °C

# Now from value to molecule:
row,melting point,Compound
1,98 to 100 °C,CC(=O)CN(C(=O)Cc1ccccc1)C(C)(C)c1cccc(Cl)c1
2,276 to 278 °C,CCn1cc(C(=O)O)c(=O)cc1-c1ccc(N2CCCC2)cc1
3,219 to 221 °C,CC(C)Cn1c(CNC(=O)OC(C)(C)C)c(-c2cccs2)c2cc(OCC(N)=O)ccc2c1=O
4,240 to 242 °C,CN1C(=O)CC[C@]2(C)c3ccc(NC(=O)c4cccc([N+](=O)[O-])c4)cc3CC[C@@H]12
5,154 to 163 °C,NC(=O)c1ccc(F)c2c1CC(N(CCCc1c[nH]c3c(Cl)cccc13)C1CCC1)CO2 (stereo unspecified)
6,159 to 160 °C,CCOC(=O)C(=COS(=O)(=O)c1ccc(C)cc1)c1ccccc1
7,252 °C,Cc1cc(-c2cc(C(F)F)n3ncc(C(=O)Nc4cccc(S(N)(=O)=O)c4)c3n2)ccc1C(F)(F)F
8,221 to 222 °C,O=C(c1ccc2[nH]c3ccccc3c2c1)N1CCCCC1
9,129 to 130 °C,O=C(CS(=O)c1ccc(Cl)cc1)c1ccccc1 (stereo unspecified)
10,221 to 223 °C,Cc1cccc(C)c1C(=O)c1sc(Nc2ccc(N3CCOCC3)cc2)nc1N
11,206 to 208 °C,CN1CCC(C2(O)c3ccccc3Oc3ccc(Cl)cc32)CC1 (stereo unspecified)
12,172 to 174 °C,CCCOc1cc2ccccc2c2c(=O)c(-c3ccc(OC)cc3)c[nH]c12
13,50 °C,CCOC(=O)c1ccc(F)c([N+](=O)[O-])c1
14,128 to 130 °C,Cc1ccc(Oc2cccc(C#CC(C)N(O)C(N)=O)c2)cc1F (stereo unspecified)
15,275 to 277 °C,Cc1ccc([N+](=O)[O-])cc1Nc1nccc(-c2cccnn2)n1
16,143 to 144 °C,COc1ccc(CNc2nc(SC)ncc2C(=O)NCc2ccccn2)cc1Cl
17,106 to 107 °C,COc1cccc(-c2cc(Cl)c3cc(OC)ccc3n2)c1

row,melting point,Compound
1,139 to 141 °C,CC(C(=O)O)c1ccc(C(=O)c2ccc(Cl)cc2)n1C (stereo unspecified)
2,107 to 109 °C,Nc1ncnc2c1c(-c1ccc(Oc3ccccc3O)cc1)cn2C1CCCC1
3,162 to 164 °C,COC(=O)c1ccccc1S(=O)(=O)NC(=O)Nc1nc(C)cc(OC(F)F)n1
4,195 to 196 °C,Cc1nc(NC(=O)c2cccc(C(F)(F)F)c2)sc1C(=O)NCc1ccccc1
5,218 °C,O=C(O)Cc1ccc2c(c1)Cc1cccnc1O2
6,133 °C,Fc1ccc(OCCCCN2CCC(NC3=Nc4ccccc4CS3)CC2)cc1
7,69 to 71 °C,N#CC(Cl)Cc1ccc(Cl)cc1C(=O)c1ccccc1 (stereo unspecified)
8,29 to 31 °C,CN(C)CCCN=Cc1ccc2ccccc2c1
9,174 to 178 °C,O=C(O)CCc1ccc2c(c1)oc1ccc(Cl)cc12
10,316 to 323 °C,Cc1c(-c2ccc(C3CCCCC3)cc2)nc2ccc(F)cc2c1C(=O)O
11,252 to 254 °C,COc1ccc2c(c1)CCC(NC(C)=O)(C(=O)O)C2 (stereo unspecified)
12,110 to 111 °C,COc1ccc(CN2C(=O)[C@@H](NC(=O)Cc3ccccc3)[C@H]2CN=[N+]=[N-])c(OC)c1 (relative stereo)
13,170 to 172 °C,COc1ccc(CSc2cccnc2C(=O)O)cc1
14,122 to 123 °C,COCOc1ccc(CCCOc2nn(C)cc2CC(=O)O)c(Oc2ncc(C(F)(F)F)cc2Cl)c1
15,139 to 142 °C,COc1ccc(Cl)cc1N1CCN(CCCNC(=O)c2c(-c3ccccc3)noc2C)CC1
16,109 to 111 °C,CN(Cc1ccc(Cl)cc1)c1ccc(S(=O)CCCCCC(=O)O)cc1 (stereo unspecified)
17,51 to 54 °C,COc1cccc(C(=O)Cl)c1OC(C)=O
